Results as given in patent US20080125495A1, “Ameliorant For Renal Insufficiency” (MEIJI DAIRIES CORPORATION, priority 2004, published 2008).

Tested on: diabetes model rats
Test: Renal dysfunction parameters in STZ-induced diabetes model rats (kidney weight, serum creatinine, serum urea nitrogen, MDA in kidney)
Format: in vivo, SD rats
Experimental: To 8 weeks old male SD rats, 50 mg/kg of STZ (streptozotocin, manufactured by Wako Pure Chemical Industries, Ltd.) was intraperitoneally administered, thereby inducing diabetes. The diabetes model rats were divided into four groups: as therapeutic groups, 2,4,4-trimethyl-3(15-hydroxypentadecyl)-2-cyclohexen-1-one ([…]) synthesized by a method described in JP-A-2000-297034 was intraperitoneally administered once a day continuously for 4 or 8 weeks; and as controls, a non-therapeutic group with diabetes alone (Diabetic Control) and a control group without treatment were prepared. After 4 or 8 weeks, serum and both kidneys were removed from the rats. The right kidney was stored in a frozen state and the left kidney was subjected to formalin fixation.
Increase of kidney weight, elevation of serum creatinine level, and increase of MDA in kidney may be observed by renal dysfunction caused by diabetes.

[1] = 2 mg/kg i.p. once a day, 4 weeks after STZ administration
[2] = 2 mg/kg i.p. once a day, 8 weeks after STZ administration
[3] = 8 mg/kg i.p. once a day, 4 weeks after STZ administration
[4] = 8 mg/kg i.p. once a day, 8 weeks after STZ administration
[5] = 8 mg/kg, eighth week after STZ administration
[6] = 8 mg/kg, fourth week after STZ administration

## CC1=C(CCCCCCCCCCCCCCCO)C(C)(C)CCC1=O [Compound 1, 2,4,4-trimethyl-3(15-hydroxypentadecyl)-2-cyclohexen-1-one]
2 mg/kg
  increase of MDA in kidney (in words): markedly suppressed
[1]
  Serum creatinine: 2.354 ± 0.254 mg/dL
  Serum urea nitrogen: 51.00 ± 3.78 mg/dL
  Weight of kidney: 1.33 ± 0.05 g
[2]
  Serum creatinine: 2.504 ± 0.253 mg/dL
  Serum urea nitrogen: 60.78 ± 5.34 mg/dL
  Weight of kidney: 1.59 ± 0.04 g
4 mg/kg, eighth week after STZ administration
  elevation of serum creatinine level (in words): tendency of the suppression
8 mg/kg
  increase of MDA in kidney (in words): markedly suppressed
[3]
  Serum creatinine: 1.004 ± 0.118 mg/dL
  Serum urea nitrogen: 41.76 ± 3.60 mg/dL
  Weight of kidney: 1.27 ± 0.07 g
[4]
  Serum creatinine: 1.836 ± 0.228 mg/dL
  Serum urea nitrogen: 53.69 ± 2.97 mg/dL
  Weight of kidney: 1.33 ± 0.05 g
[5]
  elevation of serum creatinine level (in words): markedly suppressed
  increase of kidney weight (in words): markedly suppressed
[6]
  elevation of serum creatinine level (in words): markedly suppressed
  elevation of serum urea nitrogen (in words): markedly suppressed
Rats to which the compound was administered, fourth week after STZ administration
  increase of kidney weight (in words): suppressed
